In the kinase profiling compilation of Christmann-Franck et al. (2016):
Several values for one entry are separate records, joined by “and”; a condition that tells them apart may be missing. Equal entries are not always repeated.

Assays:
Assay in all cases: radiometric filter-binding kinase assay
RPS6KA5 KD1 KD2 (human) = RPS6KA5 KD1 KD2 (human) (UniProt O75582)
HIPK1 (human) = HIPK1 (human) (UniProt Q86Z02); conditions: compound 1.0 µM
DAPK1 (human) = DAPK1 (human) (UniProt P53355); conditions: compound 1.0 µM
MARK1 (human) = MARK1 (human) (UniProt Q9P0L2); conditions: compound 1.0 µM
MAP3K11 (human) = MAP3K11 (human) (UniProt Q16584); conditions: compound 1.0 µM
ERBB4 (human) = ERBB4 (human) (UniProt Q15303); conditions: compound 1.0 µM
EPHB4 (human) = EPHB4 (human) (UniProt P54760); conditions: compound 1.0 µM
MAP3K5 (human) = MAP3K5 (human) (UniProt Q99683); conditions: compound 1.0 µM
STK16 (human) = STK16 (human) (UniProt O75716); conditions: compound 1.0 µM
CLK2 (human) = CLK2 (human) (UniProt P49760); conditions: compound 1.0 µM
GCK (human) = GCK (human) (UniProt Q12851); conditions: compound 1.0 µM
EPHA4 (human) = EPHA4 (human) (UniProt P54764); conditions: compound 1.0 µM
TTK (human) = TTK (human) (UniProt P33981); conditions: compound 1.0 µM
MARK4 (human) = MARK4 (human) (UniProt Q96L34); conditions: compound 1.0 µM
NTRK1 (human) = NTRK1 (human) (UniProt P04629); conditions: compound 1.0 µM
[1] = tested on: PAK2 (human), Q13177 [T402E]; conditions: compound 1.0 µM
AURKA (human) = AURKA (human) (UniProt O14965); conditions: compound 1.0 µM
STK33 (human) = STK33 (human) (UniProt Q9BYT3); conditions: compound 1.0 µM
EPHB3 (human) = EPHB3 (human) (UniProt P54753); conditions: compound 1.0 µM
MAP3K7 TAB1 (human) = MAP3K7 TAB1 (human) (UniProt Q15750+O43318); conditions: compound 1.0 µM
ABL1 (human) = ABL1 (human) (UniProt P00519); conditions: compound 1.0 µM
MINK1 (human) = MINK1 (human) (UniProt Q8N4C8); conditions: compound 1.0 µM
MAPK13 (human) = MAPK13 (human) (UniProt O15264); conditions: compound 1.0 µM
BTK (human) = BTK (human) (UniProt Q06187); conditions: compound 1.0 µM
IRAK4 (human) = IRAK4 (human) (UniProt Q9NWZ3); conditions: compound 1.0 µM
FLT1 (human) = FLT1 (human) (UniProt P17948); conditions: compound 1.0 µM
JAK2 JH1 JH2 (human) = JAK2 JH1 JH2 (human) (UniProt O60674); conditions: compound 1.0 µM
[2] = target: STK11 CAB39 STRADA (human) (UniProt Q9Y376+Q7RTN6+Q15831); conditions: compound 1.0 µM
PTK6 (human) = PTK6 (human) (UniProt Q13882); conditions: compound 1.0 µM
INSR (human) = INSR (human) (UniProt P06213); conditions: compound 1.0 µM
MARK2 (human) = MARK2 (human) (UniProt Q7KZI7); conditions: compound 1.0 µM
RIPK2 (human) = RIPK2 (human) (UniProt O43353); conditions: compound 1.0 µM
DYRK1A (human) = DYRK1A (human) (UniProt Q13627); conditions: compound 1.0 µM
PDPK1 (human) = PDPK1 (human) (UniProt O15530); conditions: compound 1.0 µM
Sequence of PDPK1 (human) (O15530 whole entry, looked up): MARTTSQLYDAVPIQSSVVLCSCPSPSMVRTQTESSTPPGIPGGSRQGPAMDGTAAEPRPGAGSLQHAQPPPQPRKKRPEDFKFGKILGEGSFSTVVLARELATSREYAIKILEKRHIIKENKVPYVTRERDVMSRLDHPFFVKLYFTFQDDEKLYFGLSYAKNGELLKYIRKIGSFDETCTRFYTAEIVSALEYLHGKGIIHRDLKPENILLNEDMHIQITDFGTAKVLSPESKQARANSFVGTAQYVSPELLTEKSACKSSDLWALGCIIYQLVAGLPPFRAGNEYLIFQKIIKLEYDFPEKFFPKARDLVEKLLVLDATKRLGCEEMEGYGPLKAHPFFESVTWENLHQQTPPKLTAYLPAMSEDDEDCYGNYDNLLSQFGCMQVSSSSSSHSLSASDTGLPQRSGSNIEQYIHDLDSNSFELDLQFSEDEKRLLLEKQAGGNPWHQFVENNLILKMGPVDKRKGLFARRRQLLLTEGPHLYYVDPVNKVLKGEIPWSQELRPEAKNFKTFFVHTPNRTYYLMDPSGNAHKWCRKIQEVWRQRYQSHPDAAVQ

Sequence of ERBB4 (human) (Q15303 whole entry, looked up): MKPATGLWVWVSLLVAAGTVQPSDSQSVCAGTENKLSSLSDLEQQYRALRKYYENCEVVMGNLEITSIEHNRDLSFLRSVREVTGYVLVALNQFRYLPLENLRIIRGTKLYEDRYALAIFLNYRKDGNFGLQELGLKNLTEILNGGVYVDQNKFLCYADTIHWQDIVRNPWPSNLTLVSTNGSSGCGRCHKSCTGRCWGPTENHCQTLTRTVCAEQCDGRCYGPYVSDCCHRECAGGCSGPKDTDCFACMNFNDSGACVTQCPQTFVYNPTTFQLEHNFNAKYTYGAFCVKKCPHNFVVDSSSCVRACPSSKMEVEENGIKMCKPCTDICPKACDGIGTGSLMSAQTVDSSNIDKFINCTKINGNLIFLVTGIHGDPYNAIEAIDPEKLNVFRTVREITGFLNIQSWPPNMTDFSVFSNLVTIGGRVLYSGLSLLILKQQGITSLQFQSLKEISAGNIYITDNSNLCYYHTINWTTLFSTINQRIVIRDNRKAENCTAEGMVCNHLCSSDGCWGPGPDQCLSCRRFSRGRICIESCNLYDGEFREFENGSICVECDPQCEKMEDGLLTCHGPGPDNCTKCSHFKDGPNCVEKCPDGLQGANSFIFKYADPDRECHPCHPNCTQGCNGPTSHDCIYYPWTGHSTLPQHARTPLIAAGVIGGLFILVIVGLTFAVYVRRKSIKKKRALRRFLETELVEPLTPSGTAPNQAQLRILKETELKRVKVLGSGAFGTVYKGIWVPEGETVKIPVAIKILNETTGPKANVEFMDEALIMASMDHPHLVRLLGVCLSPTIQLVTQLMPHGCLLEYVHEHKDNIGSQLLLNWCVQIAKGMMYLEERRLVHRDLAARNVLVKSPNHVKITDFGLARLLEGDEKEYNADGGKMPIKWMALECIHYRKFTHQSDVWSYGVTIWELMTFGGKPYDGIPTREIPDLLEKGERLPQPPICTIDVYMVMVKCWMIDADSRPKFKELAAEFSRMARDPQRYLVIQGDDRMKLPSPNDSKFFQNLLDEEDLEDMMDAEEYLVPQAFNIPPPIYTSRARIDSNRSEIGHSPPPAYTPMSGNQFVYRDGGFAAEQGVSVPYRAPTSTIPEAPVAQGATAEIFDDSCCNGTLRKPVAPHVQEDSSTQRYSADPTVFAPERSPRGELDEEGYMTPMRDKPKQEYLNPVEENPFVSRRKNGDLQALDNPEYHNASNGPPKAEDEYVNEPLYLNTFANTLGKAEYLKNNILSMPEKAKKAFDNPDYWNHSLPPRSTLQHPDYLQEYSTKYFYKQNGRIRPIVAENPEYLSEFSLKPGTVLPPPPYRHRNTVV
Sequence of MAP3K7 TAB1 (human) (O43318 whole entry, looked up): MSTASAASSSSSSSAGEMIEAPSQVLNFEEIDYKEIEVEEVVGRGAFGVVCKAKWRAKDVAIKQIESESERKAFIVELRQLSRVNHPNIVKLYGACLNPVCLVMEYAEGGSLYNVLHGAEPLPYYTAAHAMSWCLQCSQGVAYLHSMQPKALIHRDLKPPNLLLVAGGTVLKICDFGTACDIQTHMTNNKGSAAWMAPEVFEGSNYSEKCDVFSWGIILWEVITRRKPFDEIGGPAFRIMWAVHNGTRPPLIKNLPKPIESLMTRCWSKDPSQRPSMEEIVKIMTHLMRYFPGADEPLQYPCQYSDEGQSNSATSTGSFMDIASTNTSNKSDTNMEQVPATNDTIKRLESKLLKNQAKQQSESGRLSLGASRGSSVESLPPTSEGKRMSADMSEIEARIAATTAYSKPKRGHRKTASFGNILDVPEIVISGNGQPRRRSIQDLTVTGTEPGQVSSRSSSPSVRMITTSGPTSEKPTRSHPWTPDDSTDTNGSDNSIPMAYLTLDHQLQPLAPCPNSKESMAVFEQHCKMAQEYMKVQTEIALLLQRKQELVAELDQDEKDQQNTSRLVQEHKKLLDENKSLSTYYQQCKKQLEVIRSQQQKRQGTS
Sequence of MAP3K7 TAB1 (human) (Q15750 whole entry, looked up): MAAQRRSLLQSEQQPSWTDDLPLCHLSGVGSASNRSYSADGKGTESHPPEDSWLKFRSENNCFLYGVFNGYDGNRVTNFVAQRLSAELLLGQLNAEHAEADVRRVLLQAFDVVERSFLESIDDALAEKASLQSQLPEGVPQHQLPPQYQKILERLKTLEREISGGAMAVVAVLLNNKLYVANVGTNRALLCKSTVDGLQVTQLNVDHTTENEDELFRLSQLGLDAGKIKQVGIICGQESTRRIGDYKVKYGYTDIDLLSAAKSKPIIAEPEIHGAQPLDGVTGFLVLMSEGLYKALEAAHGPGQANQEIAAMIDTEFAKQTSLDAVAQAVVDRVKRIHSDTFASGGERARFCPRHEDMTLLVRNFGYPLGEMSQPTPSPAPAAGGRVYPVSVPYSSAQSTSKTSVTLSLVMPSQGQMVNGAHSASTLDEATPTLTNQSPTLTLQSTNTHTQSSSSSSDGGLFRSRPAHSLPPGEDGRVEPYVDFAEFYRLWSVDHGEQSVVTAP
Sequence of JAK2 JH1 JH2 (human) (O60674 whole entry, looked up): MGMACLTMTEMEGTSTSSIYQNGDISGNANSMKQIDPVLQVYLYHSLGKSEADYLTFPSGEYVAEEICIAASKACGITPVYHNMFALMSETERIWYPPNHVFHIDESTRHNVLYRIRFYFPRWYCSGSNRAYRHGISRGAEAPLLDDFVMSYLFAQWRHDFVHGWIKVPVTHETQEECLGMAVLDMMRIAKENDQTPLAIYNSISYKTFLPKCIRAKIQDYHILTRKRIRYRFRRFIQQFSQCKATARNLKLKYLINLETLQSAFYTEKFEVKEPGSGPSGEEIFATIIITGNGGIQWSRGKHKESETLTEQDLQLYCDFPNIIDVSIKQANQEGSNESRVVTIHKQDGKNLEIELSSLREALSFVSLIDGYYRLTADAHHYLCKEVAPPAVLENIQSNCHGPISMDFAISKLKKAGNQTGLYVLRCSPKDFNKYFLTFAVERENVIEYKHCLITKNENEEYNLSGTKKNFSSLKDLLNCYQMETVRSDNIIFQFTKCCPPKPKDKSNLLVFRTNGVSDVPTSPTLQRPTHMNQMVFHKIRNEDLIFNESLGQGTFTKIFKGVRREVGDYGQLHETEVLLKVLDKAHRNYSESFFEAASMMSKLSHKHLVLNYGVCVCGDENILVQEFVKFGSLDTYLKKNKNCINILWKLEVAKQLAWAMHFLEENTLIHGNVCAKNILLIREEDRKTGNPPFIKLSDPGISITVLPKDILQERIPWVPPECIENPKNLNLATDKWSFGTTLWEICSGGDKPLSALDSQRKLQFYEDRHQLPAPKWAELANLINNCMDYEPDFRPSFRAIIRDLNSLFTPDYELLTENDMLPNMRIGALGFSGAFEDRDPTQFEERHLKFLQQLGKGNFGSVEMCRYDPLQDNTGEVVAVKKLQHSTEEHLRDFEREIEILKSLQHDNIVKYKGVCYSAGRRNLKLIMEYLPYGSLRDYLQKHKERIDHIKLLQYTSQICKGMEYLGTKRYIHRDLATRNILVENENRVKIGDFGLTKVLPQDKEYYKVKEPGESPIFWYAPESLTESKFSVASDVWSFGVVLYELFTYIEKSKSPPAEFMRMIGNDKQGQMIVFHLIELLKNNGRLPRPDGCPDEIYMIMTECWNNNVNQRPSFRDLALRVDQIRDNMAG
Sequence of MARK2 (human) (Q7KZI7 whole entry, looked up): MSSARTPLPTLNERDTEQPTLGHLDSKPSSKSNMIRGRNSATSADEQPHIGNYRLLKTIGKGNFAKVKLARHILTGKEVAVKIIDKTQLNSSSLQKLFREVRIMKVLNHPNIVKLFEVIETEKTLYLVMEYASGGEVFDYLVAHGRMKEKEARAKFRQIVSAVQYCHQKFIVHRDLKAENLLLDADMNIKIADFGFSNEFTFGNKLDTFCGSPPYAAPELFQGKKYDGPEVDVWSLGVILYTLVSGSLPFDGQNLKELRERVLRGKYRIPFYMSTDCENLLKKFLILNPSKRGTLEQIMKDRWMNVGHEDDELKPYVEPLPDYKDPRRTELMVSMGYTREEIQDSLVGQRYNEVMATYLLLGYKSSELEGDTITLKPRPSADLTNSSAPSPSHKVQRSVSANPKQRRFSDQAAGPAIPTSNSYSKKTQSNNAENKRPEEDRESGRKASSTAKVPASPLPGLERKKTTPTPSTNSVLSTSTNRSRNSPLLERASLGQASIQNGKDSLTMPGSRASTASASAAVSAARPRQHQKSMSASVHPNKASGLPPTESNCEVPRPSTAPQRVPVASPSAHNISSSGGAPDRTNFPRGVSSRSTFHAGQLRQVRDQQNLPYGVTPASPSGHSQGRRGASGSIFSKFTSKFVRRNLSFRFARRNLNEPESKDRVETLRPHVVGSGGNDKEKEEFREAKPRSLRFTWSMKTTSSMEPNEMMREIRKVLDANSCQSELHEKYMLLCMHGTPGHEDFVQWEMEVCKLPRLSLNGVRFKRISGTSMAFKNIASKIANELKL

SMILES	residual activity (HIPK1 (human)) [%]	residual activity (DAPK1 (human)) [%]	residual activity (MARK1 (human)) [%]	residual activity (MAP3K11 (human)) [%]	residual activity (ERBB4 (human)) [%]	residual activity (EPHB4 (human)) [%]	residual activity (MAP3K5 (human)) [%]	residual activity (STK16 (human)) [%]	residual activity (CLK2 (human)) [%]	residual activity (GCK (human)) [%]	residual activity (EPHA4 (human)) [%]	residual activity (TTK (human)) [%]	residual activity (MARK4 (human)) [%]	residual activity (NTRK1 (human)) [%]	residual activity [1] [%]	residual activity (AURKA (human)) [%]	residual activity (STK33 (human)) [%]	residual activity (EPHB3 (human)) [%]	residual activity (MAP3K7 TAB1 (human)) [%]	residual activity (ABL1 (human)) [%]	further results
Oc1ccc2c(c1)C(O)c1cc(O)ccc1-2																					residual activity (RPS6KA5 KD1 KD2 (human); compound 20.0 µM): 85%
Oc1ccc2c(c1)oc1c3ccccc3c(O)cc21	74	31	88	76	77	103	87	85	8	65	100	63	99	107	87	103	85	97	71	83	residual activity (RPS6KA5 KD1 KD2 (human); compound 1.0 µM): 105%; residual activity (MINK1 (human)): 87%; residual activity (MAPK13 (human)): 95%; residual activity (BTK (human)): 60%; residual activity (IRAK4 (human)): 75%; residual activity (FLT1 (human)): 40%; residual activity (JAK2 JH1 JH2 (human)): 117%; residual activity [2]: 71%; residual activity (PTK6 (human)): 103%; residual activity (INSR (human)): 98%; residual activity (MARK2 (human)): 87%; residual activity (RIPK2 (human)): 107%
COc1ccc2c(c1)[nH]c1c(C)nccc12	119	95	88	105	92	101	95	92	10	68	97	75	89	104	89	93	97	86	95	111	residual activity (DYRK1A (human)): 2%; residual activity (MINK1 (human)): 101%; residual activity (MAPK13 (human)): 88%; residual activity (BTK (human)): 69%; residual activity (IRAK4 (human)): 59%; residual activity (FLT1 (human)): 78%; residual activity (JAK2 JH1 JH2 (human)): 92%; residual activity [2]: 94%; residual activity (PTK6 (human)): 112%; residual activity (INSR (human)): 100%; residual activity (MARK2 (human)): 80%; residual activity (RIPK2 (human)): 107%; residual activity (PDPK1 (human)): 99% and 115%
